≈ marks a conversion by molar mass, not a printed value. Where “and” joins values, the source holds several entries; their conditions need not be identical. Equal entries are not always repeated. Structures can show the parent of a compound that is named as a salt. Where two headings read alike, the source gives them in different places.
Experiments:
hairless mouse skin = assay: in-vitro skin permeation from donor solution, Franz-diffusion cell; format: in vitro ADME
Protocol: Saturated solutions of API and API HCl were prepared in a mixture of ethanol and dodecanol (95:5) and ethanol and oleic acid (85:15), respectively.
An in-vitro permeation study was performed with the saturated solutions to show permeation of drug through mouse skin. The in-vitro experiments were conducted using a Franz-diffusion cell. The Franz-diffusion cell consists of a donor compartment and an acceptor compartment. • Skin: hairless mouse skin, female, age 6-7 weeks • Stem: Hsd: Athymic Nude-Foxn1^nu • Dermal tissue: dorsal and abdominal with all dermal layers • Breeder: Harlan Laboratories GmbH • Acceptor medium: HEPES buffer pH 7.2 • Volume acceptor: 15 mL • Volume donor: 1.0 mL • Donor solutions: • API HCl in ethanol/dodecanol (95/5) • API HCl in ethanol/oleic acid (85/15) • API in ethanol/dodecanol (95/5) • API in ethanol/oleic acid (85/15) • Permeation area: ˜1.00 cm^2 • Temperature in donor solution: 32±0.5° C. • Sampling times: 3 h, 6 h, 12 h, 18 h, 24 h • Sampling: automatic sampling system #115 • Rinsed volume: ˜7.0 mL • Sample volume: 1.0 mL • Replaced volume: 8.0 mL • Standards: • API HCl in acceptor medium • c(std A)=86.12 μg/mL • c(std B)=8.612 μg/mL • HPLC method: see above • Injection volume: variable between 3-15 μL and adjusted dilution factor

[1] = compatibility of API HCl with different adhesives; format: physicochemical
Protocol: The compatibility of the hydrochloride salt of Tapentadol (API HCl) with different types of adhesives is tested (Table 2).
Duro-Tak 87-900A: non-functional acrylic (no hydroxyl, no carboxyl groups), non-curing
Duro-Tak 87-4287: hydroxyl-functionalized polyacrylate-vinylacetate copolymer, non-curing
Duro-Tak 87-2677: carboxylate-functionalized polyacrylate-vinylacetate copolymer, self-curing
Duro-Tak 87-6911 A: tackified styrene rubber (styrene-block-butadiene-block-styrene), not functionalized
Bio PSA 7-4502: silicone adhesive.

[2] = solubility of API and API HCl in different solvents; format: physicochemical
Protocol: The solubility of API and API HCl in different organic solvents and aqueous solutions is tested by transferring defined volumes of the solvents into micro vials. API and API HCl, respectively, are added until saturation. The solutions are centrifuged and the supernatants analyzed by HPLC (Table 1).

pain = assay: preliminary clinical trials, pain treating effect (visual analog scale); format: in vivo, human
Source text: Low serum concentrations of Tapentadol suffice to show an effect in individuals that are relatively sensitive and higher serum concentrations of Tapentadol are needed to show an effect in persons that are relatively unsensitive.

[3] = donor ethanol/dodecanol (95:5), time between sampling 6 h, 5th interval (sampling at 24 h)
[4] = donor ethanol/dodecanol (95:5), total dissolution time 3 h
[5] = donor ethanol/dodecanol (95:5), total dissolution time 6 h
[6] = donor ethanol/dodecanol (95:5), total dissolution time 12 h
[7] = donor ethanol/oleic (85:15), time between sampling 3 h, 1st interval (sampling at 3 h)
[8] = donor ethanol/oleic (85:15), time between sampling 3 h, 2nd interval (sampling at 6 h)
[9] = donor ethanol/oleic (85:15), time between sampling 6 h, 3rd interval (sampling at 12 h)
[10] = donor ethanol/oleic (85:15), time between sampling 6 h, 5th interval (sampling at 24 h)
[11] = donor ethanol/oleic (85:15), total dissolution time 3 h
[12] = donor ethanol/oleic (85:15), total dissolution time 6 h
[13] = donor ethanol/oleic (85:15), total dissolution time 12 h
[14] = donor ethanol/oleic (85:15), total dissolution time 18 h
[15] = donor ethanol/oleic (85:15), total dissolution time 24 h
[16] = donor ethanol/oleic (85:15), total time 3 h
[17] = donor ethanol/oleic (85:15), total time 6 h
[18] = donor ethanol/oleic (85:15), total time 12 h
[19] = donor ethanol/oleic (85:15), total time 18 h
[20] = donor ethanol/oleic (85:15), total time 24 h
[21] = donor ethanol/dodecanol (95:5), total dissolution time 18 h
[22] = donor ethanol/dodecanol (95:5), total dissolution time 24 h

CC[C@@H](c1cccc(O)c1)[C@@H](C)CN(C)C [API HCl]
flux (hairless mouse skin; [3]): 810.2 μg/cm^2h and 480.5 μg/cm^2h
permeated amount of API or API HCl (hairless mouse skin; [4]): 0.8% and 0.2%
permeated amount of API or API HCl (hairless mouse skin; [5]): 2.1% and 0.7%
permeated amount of API or API HCl (hairless mouse skin; [6]): 8.0% and 2.6%
flux (hairless mouse skin; [7]): 55.4 μg/cm^2h and 63.3 μg/cm^2h
flux (hairless mouse skin; [8]): 107.6 μg/cm^2h and 142.2 μg/cm^2h
flux (hairless mouse skin; [9]): 205.0 μg/cm^2h and 234.1 μg/cm^2h
flux (hairless mouse skin; donor ethanol/oleic (85:15), time between sampling 6 h, 4th interval (sampling at 18 h)): 142.8 μg/cm^2h and 155.3 μg/cm^2h
flux (hairless mouse skin; [10]): 114.7 μg/cm^2h and 115.8 μg/cm^2h
permeated amount of API or API HCl (hairless mouse skin; [11]): 0.4% and 0.5%
total permeated amount of API or API HCl (hairless mouse skin; [11]): 166.2 μg/cm^2 and 189.9 μg/cm^2
permeated amount of API or API HCl (hairless mouse skin; [12]): 1.2% and 1.6%
total permeated amount of API or API HCl (hairless mouse skin; [12]): 489.0 μg/cm^2 and 616.7 μg/cm^2
permeated amount of API or API HCl (hairless mouse skin; [13]): 4.4% and 5.1%
total permeated amount of API or API HCl (hairless mouse skin; [13]): 1718.7 μg/cm^2 and 2021.1 μg/cm^2
permeated amount of API or API HCl (hairless mouse skin; [14]): 6.5% and 7.5%
total permeated amount of API or API HCl (hairless mouse skin; [14]): 2575.7 μg/cm^2 and 2953.1 μg/cm^2
permeated amount of API or API HCl (hairless mouse skin; [15]): 8.3% and 9.3%
total permeated amount of API or API HCl (hairless mouse skin; [15]): 3263.7 μg/cm^2 and 3647.7 μg/cm^2
concentration of API or API HCl in sample solution (hairless mouse skin; [16]): 10.859 µg/mL and 12.409 µg/mL
concentration of API or API HCl in sample solution (hairless mouse skin; [17]): 26.807 µg/mL and 34.414 µg/mL
concentration of API or API HCl in sample solution (hairless mouse skin; [18]): 94.462 µg/mL and 109.882 µg/mL
concentration of API or API HCl in sample solution (hairless mouse skin; [19]): 105.741 µg/mL and 118.759 µg/mL
concentration of API or API HCl in sample solution (hairless mouse skin; [20]): 100.635 µg/mL and 107.927 µg/mL
appearance of solution ([1]; carboxylate-functionalized DT 87-2677): yellowish solutions are clear
appearance of solution ([1]; hydroxyl-functionalized polymer DT 87-4287): opaque solutions which turn slightly yellow after two weeks at room temperature
appearance of solution ([1]; non-functionalized DT 87-900A): clear and colorless
appearance of solution ([1]; silicone adhesive Bio PSA 7-4502, 2 and 5% of API HCl): clear and colorless
solubility ([2]; HEPES (pH = 7.2)): 286 mg/mL
solubility ([2]; acetone): 0.92 mg/mL
solubility ([2]; aqueous solutions): excellent solubility
solubility ([2]; ethanol): 33.1 mg/mL
solubility ([2]; ethylacetate): 4.46 mg/mL
solubility ([2]; organic solvents like ethylacetate or acetone, ethanol and n-heptane): hardly soluble
solubility ([2]; water (pH = 5.8)): 298 mg/mL

CC[C@@H](c1cccc(O)c1)[C@@H](C)CN(C)C [API, 3-[(1R,2R)-3-(dimethylamino)-1-ethyl-2-methylpropyl]phenol]
passes across the skin barrier (hairless mouse skin; compared with the hydrochloride of Tapentadol): much better
flux (hairless mouse skin; donor ethanol/dodecanol (95:5), time between sampling 3 h, 1st interval (sampling at 3 h)): 178.1 μg/cm^2h and 263.3 μg/cm^2h
flux (hairless mouse skin; donor ethanol/dodecanol (95:5), time between sampling 3 h, 2nd interval (sampling at 6 h)): 314.1 μg/cm^2h and 398.7 μg/cm^2h
flux (hairless mouse skin; donor ethanol/dodecanol (95:5), time between sampling 6 h, 3rd interval (sampling at 12 h)): 789.1 μg/cm^2h and 1056.3 μg/cm^2h
flux (hairless mouse skin; donor ethanol/dodecanol (95:5), time between sampling 6 h, 4th interval (sampling at 18 h)): 2405.6 μg/cm^2h and 2492.9 μg/cm^2h
flux (hairless mouse skin; [3]): 1028.9 μg/cm^2h and 1038.6 μg/cm^2h
permeated amount of API or API HCl (hairless mouse skin; [4]): 1.0% and 1.5%
total permeated amount of API or API HCl (hairless mouse skin; [4]): 534.4 μg/cm^2 and 789.9 μg/cm^2
permeated amount of API or API HCl (hairless mouse skin; [5]): 2.9% and 3.9%
total permeated amount of API or API HCl (hairless mouse skin; [5]): 1476.8 μg/cm^2 and 1986.1 μg/cm^2
permeated amount of API or API HCl (hairless mouse skin; [6]): 12.1% and 16.2%
total permeated amount of API or API HCl (hairless mouse skin; [6]): 6211.5 μg/cm^2 and 8324.0 μg/cm^2
permeated amount of API or API HCl (hairless mouse skin; [21]): 40.2% and 45.4%
total permeated amount of API or API HCl (hairless mouse skin; [21]): 20644.9 μg/cm^2 and 23281.6 μg/cm^2
permeated amount of API or API HCl (hairless mouse skin; [22]): 52.3% and 57.5%
total permeated amount of API or API HCl (hairless mouse skin; [22]): 26818.4 μg/cm^2 and 29513.4 μg/cm^2
concentration of API or API HCl in sample solution (hairless mouse skin; donor ethanol/dodecanol (95:5), total time 3 h): 34.914 µg/mL and 51.610 µg/mL
concentration of API or API HCl in sample solution (hairless mouse skin; donor ethanol/dodecanol (95:5), total time 6 h): 79.955 µg/mL and 105.327 µg/mL
concentration of API or API HCl in sample solution (hairless mouse skin; donor ethanol/dodecanol (95:5), total time 12 h): 351.444 µg/mL and 469.548 µg/mL
concentration of API or API HCl in sample solution (hairless mouse skin; donor ethanol/dodecanol (95:5), total time 18 h): 1128.078 µg/mL and 1224.529 µg/mL
concentration of API or API HCl in sample solution (hairless mouse skin; donor ethanol/dodecanol (95:5), total time 24 h): 997.460 µg/mL and 1052.063 µg/mL
flux (hairless mouse skin; [7]): 273.5 μg/cm^2h and 441.9 μg/cm^2h
flux (hairless mouse skin; [8]): 1279.0 μg/cm^2h and 1897.8 μg/cm^2h
flux (hairless mouse skin; [9]): 458.8 μg/cm^2h and 247.0 μg/cm^2h
flux (hairless mouse skin; [10]): 572.1 μg/cm^2h and 382.5 μg/cm^2h
permeated amount of API or API HCl (hairless mouse skin; [11]): 1.7% and 2.7%
total permeated amount of API or API HCl (hairless mouse skin; [11]): 820.5 μg/cm^2 and 1325.6 μg/cm^2
permeated amount of API or API HCl (hairless mouse skin; [12]): 9.5% and 14.3%
total permeated amount of API or API HCl (hairless mouse skin; [12]): 4657.4 μg/cm^2 and 7019.0 μg/cm^2
permeated amount of API or API HCl (hairless mouse skin; [13]): 15.1% and 17.3%
total permeated amount of API or API HCl (hairless mouse skin; [13]): 7410.5 μg/cm^2 and 8500.8 μg/cm^2
permeated amount of API or API HCl (hairless mouse skin; [14]): 17.9% and 26.6%
total permeated amount of API or API HCl (hairless mouse skin; [14]): 8799.1 μg/cm^2 and 13084.6 μg/cm^2
permeated amount of API or API HCl (hairless mouse skin; [15]): 24.9% and 31.3%
total permeated amount of API or API HCl (hairless mouse skin; [15]): 12231.6 μg/cm^2 and 15379.8 μg/cm^2
concentration of API or API HCl in sample solution (hairless mouse skin; [16]): 53.604 µg/mL and 86.606 µg/mL
concentration of API or API HCl in sample solution (hairless mouse skin; [17]): 278.914 µg/mL and 417.581 µg/mL
concentration of API or API HCl in sample solution (hairless mouse skin; [18]): 326.763 µg/mL and 316.739 µg/mL
concentration of API or API HCl in sample solution (hairless mouse skin; [19]): 262.813 µg/mL and 466.288 µg/mL
concentration of API or API HCl in sample solution (hairless mouse skin; [20]): 362.673 µg/mL and 395.534 µg/mL
solubility ([2]; HEPES (pH = 7.2)): 5.43 mg/mL (≈ 24.5 mM)
solubility ([2]; acetone): 332 mg/mL (≈ 1500 mM)
dissolved amounts of API ([2]; aqueous solutions): ≤ 5.5 mg/mL
solubility ([2]; ethanol): 404 mg/mL (≈ 1830 mM)
solubility ([2]; ethylacetate): 232 mg/mL (≈ 1050 mM)
solubility ([2]; n-heptane, organic solvent or mixture, thermodynamic from solid, n-heptane, read-out: solubility): 1.27 mg/mL (≈ 5.74 mM)
API contents measured ([2]; organic solvents other than n-heptane): higher than 230 mg/mL
solubility ([2]; water (pH = 5.8)): 0.48 mg/mL (≈ 2.17 mM)

CC[C@@H](c1cccc(O)c1)[C@@H](C)CN(C)C [Tapentadol, 3-[(1R,2R)-3-(dimethylamino)-1-ethyl-2-methylpropyl]phenol]
visual analog scale (VAS) in a population mean (pain; serum concentration about 5 ng·ml^−1): approximately −2 mm
visual analog scale (VAS) in a population mean (pain; serum concentration about 300 ng·ml^−1): approximately −15 mm
